Laboratory results: patent publication US20020098211A1, “ANTIMICROBIAL AGENT AND USES THEREOF, IN PARTICULAR IN COSMETICS AND DERMATOLOGY” (priority 1998, published 2002)

Tested on: Enterococcus faecalis (American Type Culture Collection No. 33186)
Assay: Antimicrobial (preservation) challenge test, count of surviving microorganisms in the inoculated product
Experimental: Bacterium: Enterococcus faecalis (American Type Culture Collection No. 33186), cultured on soybean Trypticase Yeast: Candida albicans (American Type Culture Collection No. 10231), cultured on Sabouraud.
Inoculum preparation: tryptone-salt diluent
Counting: Eugon LT100 agar broth
On the evening before the test, each microbial strain is plated out on the appropriate agar medium and incubated in an oven at 35° C.
On the day of the test, 20 grams of the product are weighed out in a sterile pill box. Inoculation is carried out at a concentration of 1% using a microbial suspension with a titre of 108 microorganisms per ml: a concentration of 106 is obtained in the product. The contaminated sample is incubated in an oven at 22° C.
After incubation for 7 days, 1 gram of product is taken and tenfold dilutions are carried out in Eugon LT100 broth, and these dilutions are plated out on the surface of Petri dishes containing Eugon LT100 agar. The dishes are incubated at 35° C.
The colonies are counted on the dishes containing more than 20 and less than 200 colonies.

Row | Compound | number of microorganisms per gram of preparation, remaining in the product after 7 days of contact (Table 5, single agent at 3%) | also measured
1 | CC(O)CCO (stereo not shown) [Butanediol, butanediol] | 4.0 × 10^5 microorganisms per gram of preparation | 
2 | CCCCCCC(O)CO (stereo not shown) [Octanediol, 1,2-octanediol] |  | number of microorganisms per gram of preparation, remaining in the product after 7 days of contact (Table 5, single agent at 0.25%): 3.7 × 10^5 microorganisms per gram of preparation
3 | CCCCCCCC(=O)OC(C)C(=O)OC(C)C(=O)[O-].[Na+] (stereo not shown) [Sodium capryl lactyl lactylate, sodium capryl lactyl lactylate] |  | number of microorganisms per gram of preparation, remaining in the product after 7 days of contact (Table 5, single agent at 1%): 1.5 × 10^4 microorganisms per gram of preparation
4 | CCCC(O)CO (stereo not shown) [pentanediol, 1,2-pentanediol] | 2.3 × 10^5 microorganisms per gram of preparation | 
